# Results: patent US20190284136A1, “INDOLINE DERIVATIVES” (ViiV HEALTHCARE UK LIMITED, priority 2016, published 2019)
# pIC50: −log10 of the molar value.
# Tested on: HIV
# Experiment: Table 1 IC50 of the examples (assay method not given; patent concerns inhibiting HIV replication)
# Format: cell-based
# Conditions: Human immunodeficiency virus 1
row,Structure (SMILES),pIC50
1,"COc1cc(Cl)cc(C(=O)N2CCc3c2cc(C)c([C@H](OC(C)(C)C)C(=O)O)c3-c2cc(F)c3c(c2C)CCCO3)c1 (atropisomer, axis not shown) [Example 117]",7.80
2,"Cc1cccc(C(=O)N2CCc3c2cc(C)c([C@H](OC(C)(C)C)C(=O)O)c3-c2cc(F)c3c(c2C)CCCO3)c1F (atropisomer, axis not shown) [Example 118, (S)-2-(tert-Butoxy)-2-((R)-1-(2-fluoro-3-methylbenzoyl)-4-(8-fluoro-5-methylchroman-6-yl)-6-methylindolin-5-yl)acetic acid]",8.30
3,"Cc1cc2c(c(-c3cc(F)c4c(c3C)CCCO4)c1[C@H](OC(C)(C)C)C(=O)O)CCN2C(=O)c1ccc(F)c(Cl)c1 (atropisomer, axis not shown) [Example 119, (S)-2-(tert-Butoxy)-2-((R)-1-(3-chloro-4-fluorobenzoyl)-4-(8-fluoro-5-methylchroman-6-yl)-6-methylindolin-5-yl)acetic acid]",8.52
4,"Cc1cc2c(c(-c3cc(F)c4c(c3C)CCCO4)c1[C@H](OC(C)(C)C)C(=O)O)CCN2C(=O)C(C)(C)C (atropisomer, axis not shown) [Example 120, (S)-2-(tert-Butoxy)-2-((R)-4-(8-fluoro-5-methylchroman-6-yl)-6-methyl-1-pivaloylindolin-5-yl)acetic acid]",7.04
5,"Cc1cccc(C(=O)N2CCc3c2cc(C)c([C@H](OC(C)(C)C)C(=O)O)c3-c2cc(F)c3c(c2C)CCCO3)c1C (atropisomer, axis not shown) [Example 121, (S)-2-(tert-Butoxy)-2-((R)-1-(2,3-dimethylbenzoyl)-4-(8-fluoro-5-methylchroman-6-yl)-6-methylindolin-5-yl)acetic acid]",8.15
6,"Cc1cc2c(c(-c3cc(F)c4c(c3C)CCCO4)c1[C@H](OC(C)(C)C)C(=O)O)CCN2C(=O)c1ccc2c(c1)CCC2 (atropisomer, axis not shown) [Example 122, (S)-2-(tert-Butoxy)-2-((R)-1-(2,3-dihydro-1H-indene-5-carbonyl)-4-(8-fluoro-5-methylchroman-6-yl)-6-methylindolin-5-yl)acetic acid]",7.77
7,"COc1cc(C(=O)N2CCc3c2cc(C)c([C@H](OC(C)(C)C)C(=O)O)c3-c2cc(F)c3c(c2C)CCCO3)ccc1Cl (atropisomer, axis not shown) [Example 123, (S)-2-(tert-Butoxy)-2-((R)-1-(4-chloro-3-methoxybenzoyl)-4-(8-fluoro-5-methylchroman-6-yl)-6-methylindolin-5-yl)acetic acid]",8.52
8,"COc1ccc(C(=O)N2CCc3c2cc(C)c([C@H](OC(C)(C)C)C(=O)O)c3-c2cc(F)c3c(c2C)CCCO3)cc1Cl (atropisomer, axis not shown) [Example 124, (S)-2-(tert-Butoxy)-2-((R)-1-(3-chloro-4-methoxybenzoyl)-4-(8-fluoro-5-methylchroman-6-yl)-6-methylindolin-5-yl)acetic acid]",8.52
9,"Cc1cc2c(c(-c3cc(F)c4c(c3C)CCCO4)c1[C@H](OC(C)(C)C)C(=O)O)CCN2C(=O)c1ccccc1C(F)(F)F (atropisomer, axis not shown) [Example 125, (S)-2-(tert-Butoxy)-2-((R)-4-(8-fluoro-5-methylchroman-6-yl)-6-methyl-1-(2-(trifluoromethyl)benzoyl)indolin-5-yl)acetic acid]",8.30
10,"COc1ccc(C(=O)N2CCc3c2cc(C)c([C@H](OC(C)(C)C)C(=O)O)c3-c2cc(F)c3c(c2C)CCCO3)c(OC)c1OC (atropisomer, axis not shown) [Example 126, (S)-2-(tert-Butoxy)-2-((R)-4-(8-fluoro-5-methylchroman-6-yl)-6-methyl-1-(2,3,4-trimethoxybenzoyl)indolin-5-yl)acetic acid]",8.30
11,"Cc1cc2c(c(-c3cc(F)c4c(c3C)CCCO4)c1[C@H](OC(C)(C)C)C(=O)O)CCN2C(=O)c1ccc2c(c1)CCO2 (atropisomer, axis not shown) [Example 127, (S)-2-(tert-Butoxy)-2-((R)-1-(2,3-dihydrobenzofuran-5-carbonyl)-4-(8-fluoro-5-methylchroman-6-yl)-6-methylindolin-5-yl)acetic acid]",8.70
12,"COc1ccc(C(=O)N2CCc3c2cc(C)c([C@H](OC(C)(C)C)C(=O)O)c3-c2cc(F)c3c(c2C)CCCO3)c(Cl)c1 (atropisomer, axis not shown) [Example 128, (S)-2-(tert-Butoxy)-2-((R)-1-(2-chloro-4-methoxybenzoyl)-4-(8-fluoro-5-methylchroman-6-yl)-6-methylindolin-5-yl)acetic acid]",8.30
13,"Cc1cc2c(c(-c3cc(F)c4c(c3C)CCCO4)c1[C@H](OC(C)(C)C)C(=O)O)CCN2C(=O)c1cc2ccccc2[nH]1 (atropisomer, axis not shown) [Example 129, (S)-2-(tert-Butoxy)-2-((R)-4-(8-fluoro-5-methylchroman-6-yl)-1-(1H-indole-2-carbonyl)-6-methylindolin-5-yl)acetic acid]",7.66
14,"Cc1cc2c(c(-c3cc(F)c4c(c3C)CCCO4)c1[C@H](OC(C)(C)C)C(=O)O)CCN2C(=O)C1=CCCCC1 (atropisomer, axis not shown) [Example 130, (S)-2-(tert-Butoxy)-2-((R)-1-(cyclohex-1-ene-1-carbonyl)-4-(8-fluoro-5-methylchroman-6-yl)-6-methylindolin-5-yl)acetic acid]",8.40
15,"Cc1cc2c(c(-c3cc(F)c4c(c3C)CCCO4)c1[C@H](OC(C)(C)C)C(=O)O)CCN2C(=O)c1ccco1 (atropisomer, axis not shown) [Example 131, (S)-2-(tert-Butoxy)-2-((R)-4-(8-fluoro-5-methylchroman-6-yl)-1-(furan-2-carbonyl)-6-methylindolin-5-yl)acetic acid]",6.96
16,"Cc1cc2c(c(-c3cc(F)c4c(c3C)CCCO4)c1[C@H](OC(C)(C)C)C(=O)O)CCN2C(=O)C1CC1 (atropisomer, axis not shown) [Example 132, (S)-2-(tert-Butoxy)-2-((R)-1-(cyclopropanecarbonyl)-4-(8-fluoro-5-methylchroman-6-yl)-6-methylindolin-5-yl)acetic acid]",6.38
17,"Cc1cc2c(c(-c3cc(F)c4c(c3C)CCCO4)c1[C@H](OC(C)(C)C)C(=O)O)CCN2C(=O)c1cc(C(F)(F)F)cc(C(F)(F)F)c1 (atropisomer, axis not shown) [Example 133, (S)-2-((R)-1-(3,5-Bis(trifluoromethyl)benzoyl)-4-(8-fluoro-5-methylchroman-6-yl)-6-methylindolin-5-yl)-2-(tert-butoxy)acetic acid]",7.17
18,"Cc1cccc(C(=O)N2CCc3c2cc(C)c([C@H](OC(C)(C)C)C(=O)O)c3-c2cc(F)c3c(c2C)CCCO3)c1Cl (atropisomer, axis not shown) [Example 135, (S)-2-(tert-Butoxy)-2-((R)-1-(2-chloro-3-methylbenzoyl)-4-(8-fluoro-5-methylchroman-6-yl)-6-methylindolin-5-yl)acetic acid]",8.40
19,"Cc1cc2c(c(-c3cc(F)c4c(c3C)CCCO4)c1[C@H](OC(C)(C)C)C(=O)O)CCN2C(=O)c1ccc(C(F)(F)F)cc1F (atropisomer, axis not shown) [Example 136, (S)-2-(tert-Butoxy)-2-((R)-1-(2-fluoro-4-(trifluoromethyl)benzoyl)-4-(8-fluoro-5-methylchroman-6-yl)-6-methylindolin-5-yl)acetic acid]",7.39
20,"Cc1ccc(C(=O)N2CCc3c2cc(C)c([C@H](OC(C)(C)C)C(=O)O)c3-c2cc(F)c3c(c2C)CCCO3)c(Cl)c1 (atropisomer, axis not shown) [Example 137, (S)-2-(tert-Butoxy)-2-((R)-1-(2-chloro-4-methylbenzoyl)-4-(8-fluoro-5-methylchroman-6-yl)-6-methylindolin-5-yl)acetic acid]",8.40
21,"Cc1cc2c(c(-c3cc(F)c4c(c3C)CCCO4)c1[C@H](OC(C)(C)C)C(=O)O)CCN2C(=O)c1ccc(Cl)cc1F (atropisomer, axis not shown) [Example 138, (S)-2-(tert-Butoxy)-2-((R)-1-(4-chloro-2-fluorobenzoyl)-4-(8-fluoro-5-methylchroman-6-yl)-6-methylindolin-5-yl)acetic acid]",8.30
22,"Cc1ccc(C(=O)N2CCc3c2cc(C)c([C@H](OC(C)(C)C)C(=O)O)c3-c2cc(F)c3c(c2C)CCCO3)c(F)c1 (atropisomer, axis not shown) [Example 139, (S)-2-(tert-Butoxy)-2-((R)-1-(2-fluoro-4-methylbenzoyl)-4-(8-fluoro-5-methylchroman-6-yl)-6-methylindolin-5-yl)acetic acid]",8.22
23,"Cc1cc2c(c(-c3cc(F)c4c(c3C)CCCO4)c1[C@H](OC(C)(C)C)C(=O)O)CCN2C(=O)c1ccc(C(F)(F)F)c(F)c1 (atropisomer, axis not shown) [Example 140, (S)-2-(tert-Butoxy)-2-((R)-1-(3-fluoro-4-(trifluoromethyl)benzoyl)-4-(8-fluoro-5-methylchroman-6-yl)-6-methylindolin-5-yl)acetic acid]",7.85
24,"Cc1cc(Cl)cc(C(=O)N2CCc3c2cc(C)c([C@H](OC(C)(C)C)C(=O)O)c3-c2cc(F)c3c(c2C)CCCO3)c1 (atropisomer, axis not shown) [Example 141, (S)-2-(tert-Butoxy)-2-((R)-1-(3-chloro-5-methylbenzoyl)-4-(8-fluoro-5-methylchroman-6-yl)-6-methylindolin-5-yl)acetic acid]",8.22
25,"COc1cc(C(=O)N2CCc3c2cc(C)c([C@H](OC(C)(C)C)C(=O)O)c3-c2cc(F)c3c(c2C)CCCO3)ccc1F (atropisomer, axis not shown) [Example 142, (S)-2-(tert-Butoxy)-2-((R)-1-(4-fluoro-3-methoxybenzoyl)-4-(8-fluoro-5-methylchroman-6-yl)-6-methylindolin-5-yl)acetic acid]",8.70
26,"Cc1cc2c(c(-c3cc(F)c4c(c3C)CCCO4)c1[C@H](OC(C)(C)C)C(=O)O)CCN2C(=O)c1ccc(C(F)(F)F)cc1Cl (atropisomer, axis not shown) [Example 144, (S)-2-(tert-Butoxy)-2-((R)-1-(2-chloro-4-(trifluoromethyl)benzoyl)-4-(8-fluoro-5-methylchroman-6-yl)-6-methylindolin-5-yl)acetic acid]",7.59
